Experimental data: patent US20040006103A1, “Use of chloroquine, hydroxychloroquine and 4 amino-quinolinic derivatives to obtain a drug for the anti retroviral therapy, active towards HIV sensitive strains and towards HIV strains which are resistant to both nucleosidic and non-nucleosidic reverse transcriptase inhibitors and to proteases …” (VALPHARMA S.A., priority 2002, published 2004)
Read-outs that look alike come from different tables or passages of the source.

Key:
[1] = tested on: HIV clinical isolated, characterised by mutations in the RT gene inducing geno-phenotypic resistance to ddI; assay: p24 production susceptibility test (ACTG protocol), Table 2; assay type: cell-based, HIV-1; conditions: for EC50: Human immunodeficiency virus 1, PBMC, read-out: E.C.50 HCQ; for S.I. HCQ / Fen HCQ (fold): PBMC; for S.I. HCQ: I.C.50/E.C.50; for Fen HCQ (fold): ratio to HIV-IIIB
Description: (§1) For the phenotype of the nucleosidic, non-nucleosidic and proteases inhibitors was utilised a method which consider the use of human PBMC and the protocol standardised by the AIDS Clinical Trials Group, after verifying the genotype by sequence analysis.
(§2) In order to assay in vitro the susceptibility to chloroquine and hydroxychloroquine of the viral strains, it was used the protocol of the ACTG which is characterised by the measure, of the production of antigen p24 in strongly infected cells.
(§3) The susceptibility of the viral strains to chemotherapics was determined in cell cultures, prepared in 96 wells microplates, using, for the infection, 0.1 MOI.
(§4) The supernatant of the infected cultures (either in absence or in presence of different concentrations of chemotherapic) were tested for the production of p24 after 7 days, using an ELISA test which is commercially available.
(§5) The concentrations of chloroquine and hydroxychloroquine tested ranged from 0.5 to 15 uM. At the same time non-infected cells were incubated with concentrations of chloroquine and hydroxychloroquine ranging from 0 to 50 uM to evaluate the toxicity of the compound.
(§6) After 4 day from the infection, half the cellular medium was replaced with a medium containing the corresponding dilution of chloroquine and hydroxychloroquine. The percentage of inhibition of the HIV replication, induced by chloroquine and hydroxychloroquine, was determined, after 7 day from the infection, comparing the levels of p24 of this cultures and that of the control, infected and not treated with chloroquine and hydroxychloroquine.
(§7) Therefore, the E.C.50 of chloroquine and hydroxychloroquine expresses the concentration of chemotherapic that inhibits the 50% of production of p24 and the values were calculated using linear and non linear regression analysis (the significativity for the non linear regression was R^2>0.95).
(§8) In the same experimental conditions and in the same day, but with similar concentrations of chloroquine and hydroxychloroquine, it was evaluated the vitality of the infect cell cultures, and this was expressed as I.C.50.
(§9) I.C.50 (Inhibitory Concentration) indicates the concentration of the chemotherapic agent inhibiting the vitality of the cell cultures at a rate of 50%, when there is not infection.

[2] = tested on: HIV-1 clinical isolated, characterised by mutations in the RT gene inducing geno-phenotypic resistance to 3TC; assay: p24 production susceptibility test (ACTG protocol), Table 3; assay type: cell-based; conditions: for EC50: Human immunodeficiency virus 1, PBMC, read-out: E.C.50 HCQ; for S.I. HCQ / Fen. HCQ (fold): PBMC; for S.I. HCQ: I.C.50/E.C.50; for Fen. HCQ (fold): ratio to HIV-IIIB
Description: as §1, §2, §3, §4
At the same time non-infected cells were incubated with concentrations of chloroquine and hydroxychloroquine ranging from 0 to 50 uM to evaluate the toxicity of the compound.
as §6, §7, §8, §9

[3] = tested on: HIV-1 clinical isolated, characterised by mutations in the RT gene inducing geno-phenotypic resistance to d4T; assay: p24 production susceptibility test (ACTG protocol), Table 4; assay type: cell-based; conditions: for EC50: Human immunodeficiency virus 1, PBMC, read-out: E.C.50 HCQ; for S.I. HCQ / Fen. HCQ (fold): PBMC; for S.I. HCQ: I.C.50/E.C.50; for Fen. HCQ (fold): ratio to HIV-IIIB
Description: as §1, §2, §3, §4, §5, §6, §7, §8, §9

[4] = tested on: HIV-1 clinical isolated, characterised by mutations in the RT gene inducing geno-phenotypic resistance to ABC; assay: p24 production susceptibility test (ACTG protocol), Table 5; assay type: cell-based; conditions: for EC50: Human immunodeficiency virus 1, PBMC, read-out: E.C.50 HCQ; for S.I. HCQ / Fen. HCQ (fold): PBMC; for S.I. HCQ: I.C.50/E.C.50; for Fen. HCQ (fold): ratio to HIV-IIIB
Description: as §1, §2, §3, §4, §5, §6, §7, §8, §9

[5] = tested on: HIV-1 strains geno-phenotypically resistant to NVP; assay: p24 production susceptibility test, Table 6, MT-2 cells; assay type: cell-based; conditions: for EC50: Human immunodeficiency virus 1, MT2, MT-2, read-out: E.C.50 HCQ; for S.I. HCQ / Fen. HCQ (fold): MT-2; for S.I. HCQ: I.C.50/E.C.50; for Fen. HCQ (fold): ratio to HIV-IIIB
Description: as §1, §2, §3, §4, §5, §6, §7, §8, §9

[6] = tested on: HIV-1 clinical isolated, characterised by mutations on the protease gene inducing geno-phenotypic resistance to NFV; assay: p24 production susceptibility test (ACTG protocol), Table 10, PBMC; assay type: cell-based; conditions: for S.I. HCQ: I.C.50/E.C.50; for Fen. HCQ (fold): ratio to HIV-IIIB; for EC50: Human immunodeficiency virus 1, PBMC, read-out: E.C.50 HCQ
Description: as §1, §2, §3, §4, §5, §6, §7, §8, §9

[7] = tested on: HIV; conditions: cited from earlier work
[8] = Gen M4IL M184V L210W R211KL 214F T215Y
[9] = Gen. M4IL E44D D67N M184V R211K T215Y
[10] = Gen. M41L D67N V118I M184V T215Y
[11] = Gen. K65R F77L Y115F Q151M M184V
[12] = Gen. K65R S68G F77L Y115F Q151M M184V
[13] = Gen. M41L D67N M184V L210W T215Y

Compound: CCN(CCO)CCCC(C)Nc1ccnc2cc(Cl)ccc12 (centres unmarked) [HCQ, hydroxychloroquine]
- EC50 ([1]; Gen D67N K70R M184V T215Y): 2.5 µM
- EC50 ([1]; Gen D67N K70R T215F K70R): 2.5 µM
- EC50 ([1]; Gen K70R T215F K219Q): 2 µM
- EC50 [1, 8]: 2.5 µM
- EC50 ([1]; Gen M41I T215F): 2.5 µM
- EC50 ([1]; Gen M41L D67N K70R M184V T215Y): 2.5 µM
- EC50 ([1]; Gen M41L D67N K70R T215Y): 2.8 µM
- S.I. HCQ ([1]; Gen D67N K70R M184V T215Y): 4.5
- Fen HCQ (fold) ([1]; Gen D67N K70R M184V T215Y): 1.3X fold
- S.I. HCQ ([1]; Gen D67N K70R T215F K70R): 3.4
- Fen HCQ (fold) ([1]; Gen D67N K70R T215F K70R): 1.1X fold
- S.I. HCQ ([1]; Gen K70R T215F K219Q): 5
- Fen HCQ (fold) ([1]; Gen K70R T215F K219Q): 0.8X fold
- S.I. HCQ [1, 8]: 4
- Fen HCQ (fold) [1, 8]: 1.3X fold
- S.I. HCQ ([1]; Gen M41I T215F): 4.5
- Fen HCQ (fold) ([1]; Gen M41I T215F): 1.3X fold
- S.I. HCQ ([1]; Gen M41L D67N K70R M184V T215Y): 3.6
- Fen HCQ (fold) ([1]; Gen M41L D67N K70R M184V T215Y): 1.3X fold
- S.I. HCQ ([1]; Gen M41L D67N K70R T215Y): 3.4
- Fen HCQ (fold) ([1]; Gen M41L D67N K70R T215Y): 1.1X fold
- EC50 [2, 9]: 2.5 µM
- EC50 [2, 10]: 3.2 µM
- EC50 ([2]; Gen. M184I): 2.8 µM
- EC50 ([2]; Gen. M184V): 3 µM
- S.I. HCQ [2, 9]: 3.5
- Fen. HCQ (fold) [2, 9]: 1.5X fold
- S.I. HCQ [2, 10]: 3.3
- Fen. HCQ (fold) [2, 10]: 1.7X fold
- S.I. HCQ ([2]; Gen. M184I): 3.4
- Fen. HCQ (fold) ([2]; Gen. M184I): 1.2X fold
- S.I. HCQ ([2]; Gen. M184V): 3.2
- Fen. HCQ (fold) ([2]; Gen. M184V): 1.3X fold
- EC50 [3, 11]: 3.5 µM
- EC50 ([3]; Gen. K65R F116Y Q151M): 3 µM
- EC50 ([3]; Gen. M41I T69SSS T215Y): 2.5 µM
- EC50 ([3]; Gen. T69SSS T215Y): 3 µM
- EC50 ([3]; Gen. V75I F77L F116Y Q151M): 3 µM
- S.I. HCQ [3, 11]: 3.3
- Fen. HCQ (fold) [3, 11]: 2.3X fold
- S.I. HCQ ([3]; Gen. K65R F116Y Q151M): 3.3
- Fen. HCQ (fold) ([3]; Gen. K65R F116Y Q151M): 2.2X fold
- S.I. HCQ ([3]; Gen. M41I T69SSS T215Y): 3.6
- Fen. HCQ (fold) ([3]; Gen. M41I T69SSS T215Y): 1.6X fold
- S.I. HCQ ([3]; Gen. T69SSS T215Y): 3.3
- Fen. HCQ (fold) ([3]; Gen. T69SSS T215Y): 2X fold
- S.I. HCQ ([3]; Gen. V75I F77L F116Y Q151M): 4
- Fen. HCQ (fold) ([3]; Gen. V75I F77L F116Y Q151M): 2X fold
- EC50 ([4]; Gen. K65R L74V M184V): 1.5 µM
- EC50 [4, 12]: 2.2 µM
- EC50 ([4]; Gen. L74V M184F): 2.2 µM
- EC50 ([4]; Gen. L74V Y115F M184V): 2.5 µM
- EC50 [4, 13]: 1.8 µM
- S.I. HCQ ([4]; Gen. K65R L74V M184V): 6
- Fen. HCQ (fold) ([4]; Gen. K65R L74V M184V): 1X fold
- S.I. HCQ [4, 12]: 4
- Fen. HCQ (fold) [4, 12]: 1.4X fold
- S.I. HCQ ([4]; Gen. L74V M184F): 4
- Fen. HCQ (fold) ([4]; Gen. L74V M184F): 1.4X fold
- S.I. HCQ ([4]; Gen. L74V Y115F M184V): 3.6
- Fen. HCQ (fold) ([4]; Gen. L74V Y115F M184V): 1.3X fold
- S.I. HCQ [4, 13]: 5.5
- Fen. HCQ (fold) [4, 13]: 1.2X fold
- EC50 ([5]; Gen. G190E): 3.5 µM
- EC50 ([5]; Gen. K103N): 2.8 µM
- EC50 ([5]; Gen. V106A): 3.2 µM
- EC50 ([5]; Gen. Y181C): 3.2 µM
- S.I. HCQ ([5]; Gen. G190E): 6
- Fen. HCQ (fold) ([5]; Gen. G190E): 1.9X fold
- S.I. HCQ ([5]; Gen. K103N): 7.8
- Fen. HCQ (fold) ([5]; Gen. K103N): 1.5X fold
- S.I. HCQ ([5]; Gen. V106A): 6.2
- Fen. HCQ (fold) ([5]; Gen. V106A): 1.7X fold
- S.I. HCQ ([5]; Gen. Y181C): 6.1
- Fen. HCQ (fold) ([5]; Gen. Y181C): 1.7X fold
- S.I. HCQ ([6]; Gen. D30N A71V): 4
- Fen. HCQ (fold) ([6]; Gen. D30N A71V): 1.2X fold
- S.I. HCQ ([6]; Gen. D30N M46V A71V): 5.5
- Fen. HCQ (fold) ([6]; Gen. D30N M46V A71V): 1X fold
- S.I. HCQ ([6]; Gen. G48V V92A): 3.3
- Fen. HCQ (fold) ([6]; Gen. G48V V92A): 1.6X fold
- S.I. HCQ ([6]; Gen. V82F L90M): 3.6
- Fen. HCQ (fold) ([6]; Gen. V82F L90M): 1.3X fold
- EC50 ([6]; Gen. D30N A71V): 2.2 µM
- EC50 ([6]; Gen. D30N M46V A71V): 1.8 µM
- EC50 ([6]; Gen. G48V V92A): 3 µM
- EC50 ([6]; Gen. V82F L90M): 2.5 µM
- negative events ([7]; 16 weeks, hydroxychloroquine 800 mg/day, AZT 500 mg/day): no negative events were observed
- patients with an increase of plasmatic viremia ([7]; at the 8th and at the 16th week): nobody
